The source of these data is patent US7271198B2, “Method of treating autoimmune diseases” (Wake Forest University, priority 2000, dated 2007).

One test deals with MRL/lpr mice. Description: In vivo TSA in 12 wk MRL/lpr mice (0.5 mg/kg sc, 4 weeks). More on the design: species or system mouse. How it is done: TSA was administered to MRL/lpr mice at 12 wks of age coinciding with the time of onset of clinical disease. TSA was given subcutaneously (sc) at a dose of 0.5 mg/kg dissolved in […]; control mice were given the vehicle alone (40 μl DMSO). Proteinuria was assessed as a measure of albumin in mg/mouse/day prior to the initial dose (at 12 wks of age) and after four wks of treatment (at 16 wks of age). […] After four weeks of treatment, nine mice in each group were sacrificed. At necropsy, the weight of the spleens were measured and sera was collected. […] IFN-γ was measured by ellispot assay in splenocytes isolated from vehicle or TSA treated mice.
TSA was administered to MRL/lpr mice at 12 wks of age at the time of onset of clinical disease. TSA was given subcutaneously (sc) at a dose of 0.5 mg/kg dissolved in 40 μl DMSO; control mice were given the vehicle alone (40 μl DMSO). After four weeks of treatment, nine mice in each group were sacrificed. One-half of one kidney was fixed in 10% formaldehyde/PBS, embedded in paraffin, and stained with hematoxylin and eosin. An examiner blinded to the treatment group quantified disease activity as follows: (a) Glomeruli were graded for hypercellularity (0–4), crescent formation (0–4), and inflammation (0–4). (b) The interstitium was graded for inflammation (0–4). Scores were additive (BALB/c mice historically receive scores of 0–0.5). Half of the second kidney was snap-frozen, embedded in OCT, frozen sections cut and analyzed for C3 deposition by immunofluorescence.
In determining whether TSA suppresses autoantibody production anti-dsDNA and anti GBM-auto-antibodies were measured.

The next test deals with iNOS mRNA. The test is described as follows: iNOS mRNA induction in MRL/lpr splenocytes. Particulars: splenocytes from 10 wk old mice, LPS and IFN-γ 24 hr. It is filed as cell-based, mouse. An excerpt:
Excessive production of nitric oxide (NO) is crucial to the initiation and maintenance of glomerulonephritis in MRL/lpr mice. Pharmacologic inhibition of NO synthesis in MRL/lpr mice abrogates disease progression. In examining whether HDIs could suppress inducible nitric oxide synthetase (iNOS), splenocytes from 10 wk old mice were stimulated in the presence or absence of TSA or SAHA with LPS and IFN-γ for 24 hr. […] To determine whether HDIs could suppress nitric oxide secretion by mesangial cells, mesangial cells were stimulated with LPS ([…]) in the presence of vehicle or TSA for 24 hr. The supernatant from the cell culture was assayed for nitric oxide.

Another test relates to cell-surface CD154. Description: Flow cytometry of cell-surface CD154 and CD3-ε on SLE T cells. It is filed as cell-based, human. How it is done:
In agreement with previous work (M. Koshy, et al., J. Clin. Invest. 98, 826 (1996); A. Desai-Mehta, et al., J. Clin. Invest. 97, 2063 (1996)), we find that an increased proportion of SLE T cells express cell-surface CD154 compared to normal and disease controls. To determine if TSA-dependent down-regulation of CD154 mRNA reduces surface expression of CD154, SLE T cells were treated for 18 hr with TSA and the proportion of CD154^+ cells quantified by flow cytometry (E. Hagiwara, et al., Arthritis Rheum. 39, 379 (1996)). […] T cells were stained with saturating concentrations of monoclonal FITC-anti-CD3 and PE anti-CD154 antibodies (Caltag Labs, Burlingame, Calif.) for 30 min at 4° C., and the proportion of cells expressing CD3-ε and CD154 was quantified. In sum, these experiments reveal that TSA down-regulates both CD154 mRNA and protein expression, but not GAPDH mRNA or CD3-ε expression, in SLE T cells.

Another test relates to IFN-γ mRNA. The test is described as follows: IFN-γ mRNA in MRL/lpr splenocytes. It is filed as cell-based, mouse. How it is done: In determining whether TSA can down-regulate IFN-γ mRNA, splenocytes from older, 24-wk MRL/lpr mice were treated with 0 to 500 ng/ml of TSA for 18 hr. […] Compared to splenocytes from 10-wk old mice that had low IFN-γ mRNA (FIG. 8B, lane 1), older mice had higher constitutive levels of IFN-γ transcripts normalized to the housekeeping gene, GAPDH (FIG. 8A, lane 1). […] Maximal inhibition of IFN-γ transcript consistently occurred at 500 ng/ml of TSA.
To establish whether TSA or SAHA down-regulates Con A-induced IFN-γ mRNA expression, splenocytes from 10-wk old mice were stimulated with Con A (10 μg/ml) for 18 hr. From previous kinetic studies, IFN-γ mRNA is maximally expressed when T cells are activated for 18 hr. […] Thus, both TSA and SAHA inhibit IFN-γ. mRNA up-regulation in response to mitogenic stimulation.

The next test has as its system CD154 transcript. Description: RT-PCR of CD154 transcript in SLE T cells. It is filed as cell-based, human. An excerpt:
Because SLE T cells are often activated (D. T. Y. Yu et al., J. Exp. Med. 151, 91 (1980).), the up-regulation of CD154 and IL-10 and down-regulation of IFN-γ may reflect skewed gene expression due to enhanced recruitment of HDACs to the promoters of these genes. The resulting disequilibrium of acetylation might be expected to alter the chromatin structure of the promoters (R. D. Komberg and Y. Lorch, Curr. Opin. Gen. Dev. 9, 148 (1999)), thereby activating previously silenced genes while repressing expressed genes. To determine if TSA can down-regulate CD154 transcript expression, T cells from eight SLE subjects were treated with increasing concentrations of TSA over 18 hr.
T cells were cultured in the absence or presence of increasing concentrations of TSA for 18 hr in 5% CO2 at 37° C. RNA was isolated, cDNAs were prepared, and RT-PCR was performed as previously detailed (D. Laxminarayana, et al., J. Clin. Invest. 92, 2207 (1993)). The primers used were: […]
The reaction mixtures were subjected to 30 cycles of denaturation (94° C., 1 min) and annealing for 1 min at 53° C. (CD154), […] (GAPDH) and 55° C. (IL-10 and IFN-γ). Extension was for 2 min at 72° C. with a final extension of 7 min at 72° C. using a DNA thermal cycler (Perkin-Elmer).
When SLE T cells were activated with phorbol myristate acetate (PMA) and ionomycin (IO), CD154 mRNA content increased 100%, peaked at 3 hr, and waned thereafter (FIGS. 1C and 1D).

Where [1] appears, read: 0.5 mg/kg sc, 4 weeks treatment.

On to `CC(/C=C/C(=O)NO)=C\[C@@H](C)C(=O)c1ccc(N(C)C)cc1` [TSA, Trichostatin A], for which the “proteinuria (albumin)” value in the test on MRL/lpr mice (0.5 mg/kg sc from 12 wks, after four wks, vs vehicle) is “prevented an increase in proteinuria”. Besides, in the test on MRL/lpr mice (setting [1]), the “C3 deposition (kidney immunofluorescence)” value is listed as “did not show change”; the “glomerulonephritis and renal score” value was “significant reduction”. The “number of IFN-γ secreting cells (ellispot, splenocytes)” value in the test on MRL/lpr mice (0.5 mg/kg sc, four weeks) was “significant decrement”. Besides, the spleen weight entry in the test on MRL/lpr mice (0.5 mg/kg sc, four weeks, vs vehicle) is “significantly decreased in weight”. The overall health result with MRL/lpr mice (0.5 mg/kg sc, vs vehicle) is listed as “signs of better overall health”. Moreover, in the test on MRL/lpr mice (TSA vs vehicle, 4 weeks treatment), the “anti-dsDNA and anti GBM auto-antibodies” value is recorded as “no significant change”. Also, the “iNOS mRNA induction” value with iNOS mRNA was “able to suppress iNOS mRNA induction”. Also, the “new population of CD154+ cells induced by PMA+IO” value in the test with cell-surface CD154 (SLE T cells pretreated with TSA 1000 ng/ml 18 hr, PMA+IO 24 hr, P=0.005) is “completely inhibited”. Also, the CD3-ε expression result in the test on cell-surface CD154 (SLE T cells, with or without TSA and PMA+IO) is “remained stable”. Further, the “reduction of cell-surface CD154+ cells” value in the test with cell-surface CD154 (non-activated SLE T cells, TSA, over 24 hr, vs untreated) is “did not effect any significant reduction”. The “Con A-induced up-regulation of IFN-γ transcript” value in the test on IFN-γ mRNA (splenocytes from 10-wk old mice preincubated 18 hr, Con A 10 μg/ml 18 hr, vs vehicle) is reported as “markedly reduced”. In addition, the “TSA concentration of maximal inhibition of IFN-γ transcript” value in the test with IFN-γ mRNA (splenocytes from 24-wk MRL/lpr mice, 0 to 500 ng/ml TSA, 18 hr) came to 500 ng/mL. Moreover, the “up-regulation of CD154 transcript on PMA+IO activation” value in the test on CD154 transcript (SLE T cells preincubated with TSA 18 hr (1000 ng/ml), then PMA+IO to 24 hr, vs cells not exposed, P<0.001) was “significantly reduced”. The “GAPDH mRNA expression” value in the test on CD154 transcript (SLE T cells, increasing TSA) is given as “does not modify”. Besides, the “maximal inhibition of CD154 transcript” value with CD154 transcript (SLE T cells, increasing TSA (0–1000 ng/ml), 18 hr, relative to GAPDH) was determined as 60%.
